Source: patent US20050130203A1, “Novel GABAB receptor DNA sequences” (Board of Regents, The University of Texas System, priority 1998, published 2005)

Assays:
HG20 [1] = molecular target: T1, HG20 (Homo sapiens, UniProt O75899)
HG20 [2] = molecular target: T1, HG20; remark: listed apart in the source

T1 sequence (O75899 52-941): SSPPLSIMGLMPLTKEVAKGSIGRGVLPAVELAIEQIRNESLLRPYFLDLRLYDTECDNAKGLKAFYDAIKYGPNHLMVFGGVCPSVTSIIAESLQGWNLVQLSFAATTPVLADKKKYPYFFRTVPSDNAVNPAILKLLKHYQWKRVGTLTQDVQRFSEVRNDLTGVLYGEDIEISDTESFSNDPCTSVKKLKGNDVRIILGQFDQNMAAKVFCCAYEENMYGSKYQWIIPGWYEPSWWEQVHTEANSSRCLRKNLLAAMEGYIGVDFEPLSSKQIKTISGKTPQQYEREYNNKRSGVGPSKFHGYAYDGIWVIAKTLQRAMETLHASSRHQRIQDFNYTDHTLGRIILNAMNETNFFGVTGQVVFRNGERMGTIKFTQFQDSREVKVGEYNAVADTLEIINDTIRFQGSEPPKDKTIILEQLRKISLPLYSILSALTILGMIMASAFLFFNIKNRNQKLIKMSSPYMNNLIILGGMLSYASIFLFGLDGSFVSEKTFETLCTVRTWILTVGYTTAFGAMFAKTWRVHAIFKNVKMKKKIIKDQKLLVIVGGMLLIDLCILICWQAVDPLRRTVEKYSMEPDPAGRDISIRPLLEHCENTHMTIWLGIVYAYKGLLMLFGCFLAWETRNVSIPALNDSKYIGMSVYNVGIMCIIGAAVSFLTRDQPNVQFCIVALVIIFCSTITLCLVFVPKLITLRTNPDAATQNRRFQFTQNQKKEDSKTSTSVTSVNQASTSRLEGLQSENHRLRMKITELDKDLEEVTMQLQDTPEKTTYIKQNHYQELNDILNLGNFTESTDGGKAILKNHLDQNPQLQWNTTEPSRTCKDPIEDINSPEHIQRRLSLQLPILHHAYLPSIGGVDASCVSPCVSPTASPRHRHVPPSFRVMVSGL

| Compound | activity in Xenopus oocyte functional assay (HG20 [1]) | activity in Xenopus melanophore functional assay (HG20 [2]) | pigment aggregation or dispersion response (HG20 [2]) |
| --- | --- | --- | --- |
| N[C@@H](CCC(=O)O)C(=O)O [L-Glutamate, (L)-glutamic acid] | no activity | no activity | no pigment aggregation or dispersion response |
| NC/C=C\C(=O)O [cis-4-aminocrotonic acid] |  |  | no pigment aggregation or dispersion response |
| O=S(=O)(O)C1CCNCC1 [piperidine-4-sulfonic acid] |  |  | no pigment aggregation or dispersion response |
| (−)Baclofen | no activity | no activity | no pigment aggregation or dispersion response |
